Results: publication PMC11062899, “De novo development of small cyclic peptides that are orally bioavailable” (Nature Chemical Biology, 2023)
Several values for one entry are separate records, joined by “and”; a condition that tells them apart may be missing. Equal values may be shown once. Read-outs that look alike come from different tables or passages of the source.

Columns and labels:
human α-thrombin = human α-thrombin (Homo sapiens, UniProt P00734); test: Protease inhibition, Ki for human α-thrombin (fluorogenic substrate Z-Gly-Gly-Arg-AMC); type: biochemical; settings: for Human alpha thrombin inhibition, slope normalized to DMSO: replicates R1-R3
Procedure: (§1) The inhibition constants (Ki) of cyclic peptides were calculated by measuring thrombin inhibition in the presence of different concentrations of the cyclic peptides. […] Human α-thrombin (Molecular Innovations) and rat α-thrombin (Molecular Innovations) were used at final concentrations of 2 nM and 3 nM, respectively, and fluorogenic substrate (Z-Gly-Gly-Arg-AMC, Bachem) was used at a concentration of 50 μM. Enzymatic activity was determined by measuring fluorescent gain on a Tecan Infinite M200 Pro microplate reader (excitation: 360 nm, emission: 465 nm) or a PHERAstar FSX microplate reader (excitation: 380 nm, emission: 440 nm) for 30 min at 25 °C with a fluorescent readout every 3 min. The two instruments were controlled with Tecan Infinite M200 Pro instrument software (iControl, version 1.12) and PHERAstar FSX software (version 5.70, edition 8), respectively. Protease inhibition was calculated by comparing the enzymatic activity to a control without cyclic peptide.
(§2) Half maximal inhibitory concentration (IC50) values were determined using a four-parameter logistic regression model in GraphPad Prism 9 to fit sigmoidal curves to the acquired data points according to equation (2) below.2 y=b+a−b/1+10^(logIC50−x)p where a and b represent the measured inhibition maximum and minimum, respectively; x is the logarithm of peptide concentration; y is the thrombin activity compared to a control without the cyclic peptide; and p is the Hill coefficient.
(§3) Ki values were calculated using the IC50 and the Cheng–Prusoff equation (equation (3)).3 Ki=IC50/1+S0/Km where Km is the Michaelis–Menten constant of the enzyme for the substrate used in the assay, and [S]0 is the initial substrate concentration.

rat α-thrombin = target: T1, rat α-thrombin (Rattus norvegicus, UniProt P18292); test: Protease inhibition, Ki for rat α-thrombin (fluorogenic substrate Z-Gly-Gly-Arg-AMC); type: biochemical; settings: for Rat alpha thrombin inhibition, slope normalized to DMSO: replicates R1-R3
T1 construct: rat α-thrombin (Molecular Innovations) were used at final concentrations of 2 nM and 3 nM; purchased Molecular Innovations
Procedure: as §1, §2, §3

[1] = Passive artificial membrane permeability (PAMPA);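 on Permeability% Average: top well sample relative to theoretical equilibrium sample by TIC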
[2] = peptide concentration 1.00E+02 uM
[3] = peptide concentration 1.19E-05 uM
[4] = peptide concentration 1.22E-02 uM
[5] = peptide concentration 1.25E+01 uM
[6] = peptide concentration 1.53E-03 uM
[7] = peptide concentration 1.56E+00 uM
[8] = peptide concentration 1.91E-04 uM
[9] = peptide concentration 1.95E-01 uM
[10] = peptide concentration 2.38E-05 uM
[11] = peptide concentration 2.44E-02 uM
[12] = peptide concentration 2.50E+01 uM
[13] = peptide concentration 3.05E-03 uM
[14] = peptide concentration 3.12E+00 uM
[15] = peptide concentration 3.81E-04 uM
[16] = peptide concentration 3.91E-01 uM
[17] = peptide concentration 4.77E-05 uM
[18] = peptide concentration 4.88E-02 uM
[19] = peptide concentration 5.00E+01 uM
[20] = peptide concentration 6.10E-03 uM
[21] = peptide concentration 6.25E+00 uM
[22] = peptide concentration 7.63E-04 uM
[23] = peptide concentration 7.81E-01 uM
[24] = peptide concentration 9.54E-05 uM
[25] = peptide concentration 9.77E-02 uM

O=C1C[C@H]2CCCN2C(=O)[C@H](Cc2ccccc2)NC(=O)[C@@H](NC(=O)c2ccc(Cl)s2)CC=CCCN1 [compound 38]
Ki (human α-thrombin; average of R1-R3, read-out: Human alpha thrombin inhibition, Ki Average): 13.5 µM
Human alpha thrombin inhibition, slope normalized to DMSO (human α-thrombin; [2]): 31.6 and 35.9 and 30.7
Human alpha thrombin inhibition, slope normalized to DMSO (human α-thrombin; [3]): 101.3 and 100.2 and 102.3
Human alpha thrombin inhibition, slope normalized to DMSO (human α-thrombin; [4]): 84.3 and 92.4 and 75.3
Human alpha thrombin inhibition, slope normalized to DMSO (human α-thrombin; [5]): 48.4 and 51.8 and 74.4
Human alpha thrombin inhibition, slope normalized to DMSO (human α-thrombin; [6]): 103.9 and 109.7 and 90.7
Human alpha thrombin inhibition, slope normalized to DMSO (human α-thrombin; [7]): 99.7 and 78.4 and 78.8
Human alpha thrombin inhibition, slope normalized to DMSO (human α-thrombin; [8]): 77.5 and 96.9 and 61.6
Human alpha thrombin inhibition, slope normalized to DMSO (human α-thrombin; [9]): 89.1 and 92.2 and 110.9
Human alpha thrombin inhibition, slope normalized to DMSO (human α-thrombin; [10]): 100.0 and 95.0 and 108.2
Human alpha thrombin inhibition, slope normalized to DMSO (human α-thrombin; [11]): 94.6 and 85.5 and 101.2
Human alpha thrombin inhibition, slope normalized to DMSO (human α-thrombin; [12]): 53.9 and 24.7 and 59.2
Human alpha thrombin inhibition, slope normalized to DMSO (human α-thrombin; [13]): 85.8 and 106.8 and 92.3
Human alpha thrombin inhibition, slope normalized to DMSO (human α-thrombin; [14]): 95.0 and 56.6 and 60.0
Human alpha thrombin inhibition, slope normalized to DMSO (human α-thrombin; [15]): 92.8 and 100.9 and 102.1
Human alpha thrombin inhibition, slope normalized to DMSO (human α-thrombin; [16]): 92.5 and 76.5 and 47.1
Human alpha thrombin inhibition, slope normalized to DMSO (human α-thrombin; [17]): 103.7 and 96.6 and 101.3
Human alpha thrombin inhibition, slope normalized to DMSO (human α-thrombin; [18]): 96.6 and 92.9 and 84.5
Human alpha thrombin inhibition, slope normalized to DMSO (human α-thrombin; [19]): 32.5 and 38.9 and 43.6
Human alpha thrombin inhibition, slope normalized to DMSO (human α-thrombin; [20]): 87.4 and 95.7 and 97.4
Human alpha thrombin inhibition, slope normalized to DMSO (human α-thrombin; [21]): 82.6 and 51.0 and 64.7
Human alpha thrombin inhibition, slope normalized to DMSO (human α-thrombin; [22]): 95.6 and 106.3 and 100.0
Human alpha thrombin inhibition, slope normalized to DMSO (human α-thrombin; [23]): 102.1 and 69.9 and 79.9
Human alpha thrombin inhibition, slope normalized to DMSO (human α-thrombin; [24]): 104.1 and 95.0 and 102.4
Human alpha thrombin inhibition, slope normalized to DMSO (human α-thrombin; [25]): 95.1 and 96.0 and 81.6
Ki (rat α-thrombin; average of R1-R3, read-out: Rat alpha thrombin inhibition, Ki Average): 5.05 µM
Rat alpha thrombin inhibition, slope normalized to DMSO (rat α-thrombin; [2]): 15.8 and 16.4 and 8.2
Rat alpha thrombin inhibition, slope normalized to DMSO (rat α-thrombin; [3]): 106.1 and 100.1 and 101.4
Rat alpha thrombin inhibition, slope normalized to DMSO (rat α-thrombin; [4]): 97.4 and 88.6 and 86.5
Rat alpha thrombin inhibition, slope normalized to DMSO (rat α-thrombin; [5]): 49.8 and 47.2 and 35.5
Rat alpha thrombin inhibition, slope normalized to DMSO (rat α-thrombin; [6]): 108.8 and 100.7 and 95.7
Rat alpha thrombin inhibition, slope normalized to DMSO (rat α-thrombin; [7]): 89.9 and 88.6 and 50.7
Rat alpha thrombin inhibition, slope normalized to DMSO (rat α-thrombin; [8]): 112.7 and 100.1 and 96.0
Rat alpha thrombin inhibition, slope normalized to DMSO (rat α-thrombin; [9]): 101.4 and 102.2 and 81.9
Rat alpha thrombin inhibition, slope normalized to DMSO (rat α-thrombin; [10]): 107.4 and 102.3 and 104.3
Rat alpha thrombin inhibition, slope normalized to DMSO (rat α-thrombin; [11]): 116.5 and 84.1 and 102.5
Rat alpha thrombin inhibition, slope normalized to DMSO (rat α-thrombin; [12]): 36.8 and 26.2 and 18.8
Rat alpha thrombin inhibition, slope normalized to DMSO (rat α-thrombin; [13]): 100.6 and 93.4 and 89.7
Rat alpha thrombin inhibition, slope normalized to DMSO (rat α-thrombin; [14]): 83.7 and 72.5 and 77.4
Rat alpha thrombin inhibition, slope normalized to DMSO (rat α-thrombin; [15]): 105.1 and 100.1 and 102.4
Rat alpha thrombin inhibition, slope normalized to DMSO (rat α-thrombin; [16]): 105.0 and 93.1 and 59.9
Rat alpha thrombin inhibition, slope normalized to DMSO (rat α-thrombin; [17]): 108.7 and 101.6 and 109.2
Rat alpha thrombin inhibition, slope normalized to DMSO (rat α-thrombin; [18]): 113.8 and 100.8 and 93.5
Rat alpha thrombin inhibition, slope normalized to DMSO (rat α-thrombin; [19]): 30.2 and 11.5 and 16.5
Rat alpha thrombin inhibition, slope normalized to DMSO (rat α-thrombin; [20]): 96.7 and 102.7 and 104.0
Rat alpha thrombin inhibition, slope normalized to DMSO (rat α-thrombin; [21]): 71.7 and 61.7 and 68.8
Rat alpha thrombin inhibition, slope normalized to DMSO (rat α-thrombin; [22]): 91.7 and 100.9 and 102.6
Rat alpha thrombin inhibition, slope normalized to DMSO (rat α-thrombin; [23]): 88.3 and 82.4 and 91.2
Rat alpha thrombin inhibition, slope normalized to DMSO (rat α-thrombin; [24]): 111.4 and 103.7 and 104.6
Rat alpha thrombin inhibition, slope normalized to DMSO (rat α-thrombin; [25]): 106.1 and 99.6 and 107.1
IC50 (rat α-thrombin; single replicates R1-R3, read-out: Rat alpha thrombin inhibition, IC50): 11.8 µM and 9.26 µM and 6.34 µM
Ki (rat α-thrombin; single replicates R1-R3, read-out: Rat alpha thrombin inhibition, Ki): 6.5 µM and 5.12 µM and 3.51 µM
PAMPA permeability: % permeability ([1]; 50 μM, 12–18 h, acceptor concentration relative to equilibrium): 32 ± 6%
Permeability% (single replicates R1–R3) ([1]; 50 μM, 13 h (Fig. 5d)): 25.39% and 36.84% and 33.06%
Permeability% Average ([1]; 50 μM, 13 h (Fig. 5d)): 31.8%
Papp at 50 μM ([1]; PAMPA, pH 7.4): 3.47 ×10⁻⁶ cm/s
